According to ChEMBL document CHEMBL1201862, “PubChem BioAssay data set” (2004):
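Growth conditions: 96-well plates. Treatment: test compound, 48 hours, 5 concentrations. Analysis: linear interpolation between bracketing concentrations; unreached endpoints set to highest concentration. GI50: concentration for 50% inhibition of growth.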 The source made the active and inactive calls. Rule as the data show it: active = GI50 up to about 1.1 µM and inactive = higher.

Assays:
Experiment in all cases: DTP human tumour cell line panel, 48 h
LXFL 529 = test system: LXFL 529
DMS-273 = test system: DMS-273
DMS-114 = test system: DMS-114
HOP-18 = test system: HOP-18
SNB-78 = test system: SNB-78
M19-MEL = test system: M19-MEL
DLD-1 = test system: DLD-1
XF498 = test system: XF498
RXF 631 = test system: RXF 631

Row | SMILES | GI50 (LXFL 529) | GI50 (DMS-273) | GI50 (DMS-114) | GI50 (HOP-18) | GI50 (SNB-78) | GI50 (M19-MEL) | GI50 (DLD-1) | GI50 (XF498) | GI50 (RXF 631)
1 | Cc1ccccc1C1=C/C(=C(\SS/C(C(=O)c2ccc(OCC(=O)O)c(Cl)c2Cl)=C2\C=C(c3ccccc3C)SS2)C(=O)c2ccc(OCC(=O)O)c(Cl)c2Cl)SS1 | 4.45 µM (inactive) | 20 µM (inactive) | 9.04 µM (inactive) | 16.2 µM (inactive) | 14.4 µM (inactive) | 21.3 µM (inactive) | 23.8 µM (inactive) | 19.2 µM (inactive) | 25.9 µM (inactive)
2 | CC[N+]1(C)CCC(O)(/C=C/c2ccccc2)C(C(=O)/C=C/c2ccccc2)C1 (stereo unspecified) | 2.79 µM (inactive) | 4.72 µM (inactive) | 6.62 µM (inactive) | 16.6 µM (inactive) | 24 µM (inactive) | 9.98 µM (inactive) | 4.98 µM (inactive) | 8.43 µM (inactive) | –
3 | c1ccc(-c2nnc3nn4c(-c5ccccc5)cnnc4c3c2-c2ccccc2)cc1 | 42.7 µM (inactive) | > 100 µM (inactive) | 35.6 µM (inactive) | 53 µM (inactive) | 31.7 µM (inactive) | 88.7 µM (inactive) | 95.1 µM (inactive) | 27.5 µM (inactive) | 18.7 µM (inactive)
4 | COC(=O)c1ccccc1/N=C/c1ccc(N(CCC#N)S(=O)(=O)c2ccccc2)cc1 | > 100 µM (inactive) | > 100 µM (inactive) | – | > 100 µM (inactive) | > 100 µM (inactive) | > 100 µM (inactive) | > 100 µM (inactive) | > 100 µM (inactive) | > 100 µM (inactive)
5 | C[C@H](OCc1ccccc1)C(=O)N1CCS(=O)(=O)N2CCC[C@H]2C1=O | > 100 µM (inactive) | – | > 100 µM (inactive) | > 100 µM (inactive) | > 100 µM (inactive) | > 100 µM (inactive) | > 100 µM (inactive) | – | > 100 µM (inactive)
6 | O=[N+]([O-])/C=C/c1ccc(Cl)cc1Cl | 13.8 µM (inactive) | 11 µM (inactive) | 17.8 µM (inactive) | – | – | 5.77 µM (inactive) | 24.7 µM (inactive) | – | –
7 | C[C@H]1CC[C@H](NC(=O)N(CCCl)N=O)CC1 | 14.9 µM (inactive) | 33.1 µM (inactive) | 36.5 µM (inactive) | 40.8 µM (inactive) | 35.2 µM (inactive) | 41.3 µM (inactive) | 39.5 µM (inactive) | 45.7 µM (inactive) | 33.1 µM (inactive)
8 | CCN(CC)c1ccc2c(c1)N=C1N=CC=CN1C2(c1ccc(N(C)C)cc1)c1ccc(N(C)C)cc1 | 3.84 µM (inactive) | 25.8 µM (inactive) | 3.09 µM (inactive) | 3.72 µM (inactive) | 16.7 µM (inactive) | 5.97 µM (inactive) | 4.53 µM (inactive) | 3.72 µM (inactive) | 3.83 µM (inactive)
9 | O=C1[C@@H]2C3SC(c4ccccc43)[C@@H]2C(=O)N1c1ccccc1 | > 100 µM (inactive) | > 100 µM (inactive) | > 100 µM (inactive) | > 90.4 µM (inactive) | > 100 µM (inactive) | > 100 µM (inactive) | > 100 µM (inactive) | 61 µM (inactive) | –
10 | CN1C(=O)C(Cl)(C(Cl)(Cl)S(=O)(=O)O)C(=O)c2ccccc21.c1ccncc1 (stereo unspecified) | > 100 µM (inactive) | – | – | – | – | > 100 µM (inactive) | > 100 µM (inactive) | – | –
11 | COC(=O)C1=C(c2ccc(OC)c(OC)c2)OC(c2ccc(OC)c(OC)c2)C1 (stereo unspecified) | 16.2 µM (inactive) | 54.7 µM (inactive) | 23.2 µM (inactive) | 33.5 µM (inactive) | 28.7 µM (inactive) | 42.6 µM (inactive) | 5.93 µM (inactive) | 23.2 µM (inactive) | –
12 | COC[C@@H](/N=C/N1CCc2cc(OC)c(OC)cc2C1)C(C)(C)C | > 100 µM (inactive) | – | > 100 µM (inactive) | > 100 µM (inactive) | – | > 100 µM (inactive) | > 100 µM (inactive) | > 100 µM (inactive) | > 100 µM (inactive)
13 | COc1ccc(OC)c(CCc2ccccc2CC(=O)O)c1 | > 100 µM (inactive) | > 100 µM (inactive) | > 100 µM (inactive) | > 100 µM (inactive) | > 100 µM (inactive) | > 100 µM (inactive) | > 100 µM (inactive) | > 100 µM (inactive) | –
14 | O=C(N/C(=C\c1cccc([N+](=O)[O-])c1)c1nc2cc([N+](=O)[O-])ccc2[nH]1)c1ccccc1 | 11 µM (inactive) | 39 µM (inactive) | – | – | 49.3 µM (inactive) | 40.7 µM (inactive) | 28.4 µM (inactive) | 20.7 µM (inactive) | 28.8 µM (inactive)
15 | COc1cc(-c2nnc3n2NC=C(C(=O)O)S3)cc(OC)c1OC | > 71.6 µM (inactive) | > 60.3 µM (inactive) | > 56.5 µM (inactive) | > 70.1 µM (inactive) | > 100 µM (inactive) | > 69.3 µM (inactive) | > 57.8 µM (inactive) | > 100 µM (inactive) | > 100 µM (inactive)
16 | C1=CC2CCC1CN2CCC1CNc2ccccc21 (stereo unspecified) | > 100 µM (inactive) | > 100 µM (inactive) | > 100 µM (inactive) | > 100 µM (inactive) | > 100 µM (inactive) | > 100 µM (inactive) | > 100 µM (inactive) | 52.7 µM (inactive) | –
17 | CC(C)C(Nc1c2ccccc2nc2ccccc12)C(=O)O (stereo unspecified) | > 100 µM (inactive) | 68.4 µM (inactive) | – | – | – | > 100 µM (inactive) | > 100 µM (inactive) | 3.08 µM (inactive) | –
18 | CNS(=O)(=O)NNS(=O)(=O)c1ccc2ccccc2c1 | > 100 µM (inactive) | > 100 µM (inactive) | > 100 µM (inactive) | > 100 µM (inactive) | > 100 µM (inactive) | > 100 µM (inactive) | > 100 µM (inactive) | – | –
19 | COC(=O)/C=C1/CCC2[C@@H](C(=O)CC3[C@]2(C)CCC[C@@]3(C)C(=O)OC)C1C (stereo partly specified) | 6.22 µM (inactive) | 12.7 µM (inactive) | 10.3 µM (inactive) | 14.4 µM (inactive) | 10 µM (inactive) | 15.5 µM (inactive) | 12.7 µM (inactive) | 15.3 µM (inactive) | 15.5 µM (inactive)
20 | CCOc1ccc(/C=C\c2cc(OC)c(OC)c(OC)c2)cc1 | < 0.0001 µM (active) | 0.0153 µM (active) | 0.00118 µM (active) | – | 0.000745 µM (active) | 0.0191 µM (active) | 0.0194 µM (active) | 0.000453 µM (active) | 0.367 µM (active)
21 | O=c1cc(-c2ccccc2)oc2cc(O)cc(O)c12 [CHRYSIN] | 21.1 µM (inactive) | 16.2 µM (inactive) | 22.4 µM (inactive) | – | 28.8 µM (inactive) | 25.5 µM (inactive) | – | 20 µM (inactive) | –
22 | CC[C@H](C)C(=O)O[C@H]1C[C@@H](C)C=C2C=C[C@H](C)[C@H](CC[C@@H]3C[C@@H](O)CC(=O)O3)[C@H]21 [LOVASTATIN] | 7.76 µM (inactive) | 8.69 µM (inactive) | > 30 µM (inactive) | > 30 µM (inactive) | – | 2.42 µM (inactive) | > 30 µM (inactive) | – | –
23 | S=P(N1CC1)(N1CC1)N1CC1 [THIOTEPA] | 146 µM (inactive) | 21.3 µM (inactive) | 35.4 µM (inactive) | 231 µM (inactive) | 385 µM (inactive) | 142 µM (inactive) | 195 µM (inactive) | 95.1 µM (inactive) | –
